Experimental data reported in patent US11426420B2, “Inhibitors of short-chain dehydrogenase activity for treating coronary disorders” (CASE WESTERN RESERVE UNIVERSITY, priority 2017, dated 2022).

Columns and labels:
[1] = test system: doxorubicin induced cardiomyopathy; test: doxorubicin induced cardiomyopathy in mice, one cycle (Set A), echocardiography; assay type: in vivo, male C57bl6J mice
Experimental: FIG. 1 illustrates schematically the design of a study in which male C57bl6J mice received 15 mpk cumulative dose of doxorubicin in 7 doses of 2.15 mpk administered daily over study days 1-7. A 15-PGDH inhibitor, (+) SW033291, was administered by oral gavage at a dose of 25 mpk twice daily over study days 1-14, as a solution in a vehicle of 10% ethanol and 90% soybean oil. Cardiac ejection fraction was determined by echocardiography on study days 14 and 28.
FIG. 2 illustrates a graph showing cardiac ejection fraction at study day 1, at the start of the experiment, at study day 14 and at study day 28. Black bars show measurement in control mice receiving either oral saline or oral vehicle. Blue bars show results in doxorubicin treated mice receiving oral vehicle. Red bars show results in doxorubicin treated mice also receiving (+) SW033291. Doxorubicin treated mice receiving oral vehicle (blue bars) show a 10% decrease in ejection fraction on day 14 and day 28 as compared to non-doxorubicin treated control mice receiving vehicle only for 14 days. In contrast, mice treated with both doxorubicin and (+) SW033291 only a 2% (day 14) or 1.5% (day 28) decrease in ejection fraction. The difference in ejection fraction in doxorubicin treated mice receiving or not receiving (+) SW033291 was statiscally significant (P<0.05) on both days 14 and 28.

[2] = test system: doxorubicin induced cardiomyopathy; test: doxorubicin induced cardiomyopathy in mice, 2 consecutive cycles of doxorubicin (Set B); assay type: in vivo
cardiac 15-PGDH = target: T1, cardiac 15-PGDH (Mus musculus, UniProt Q8VCC1); test: cardiac 15-PGDH activity and cardiac PGE2 after oral dosing of mice; assay type: in vivo
T1 construct: from tissue; host or cells: mouse heart (male C57bl6J mice are named for the study design)
T1 sequence (Q8VCC1 1-269): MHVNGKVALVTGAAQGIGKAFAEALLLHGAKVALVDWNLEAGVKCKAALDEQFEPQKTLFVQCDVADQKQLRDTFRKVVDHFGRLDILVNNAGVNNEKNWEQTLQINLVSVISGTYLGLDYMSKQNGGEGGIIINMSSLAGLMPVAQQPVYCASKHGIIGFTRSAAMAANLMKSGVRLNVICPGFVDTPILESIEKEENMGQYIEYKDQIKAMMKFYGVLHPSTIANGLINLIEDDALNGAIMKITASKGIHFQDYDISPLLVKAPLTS

cardiac myocytes = test: DNA damage in cardiac myocytes, gamma-H2AX immunostaining; assay type: in vivo; conditions: doxorubicin treated mice
[3] = test system: PGE2 production by cell lines; test: PGE2 production by cell lines; assay type: cell-based
[4] = chemical stability in aqueous solutions; assay type: physicochemical; conditions: over broad pH range
[5] = stability on incubation with hepatocyte extracts; assay type: in vitro ADME
[6] = stability on incubation with hepatocyte cell lines; assay type: in vitro ADME
mice = test: toxicity after IP injection into mice
recombinant 15-PGDH = target: T2, recombinant 15-PGDH (Homo sapiens, UniProt P15428); test: inhibition of recombinant 15-PGDH; assay type: biochemical
T2 sequence (P15428 1-266): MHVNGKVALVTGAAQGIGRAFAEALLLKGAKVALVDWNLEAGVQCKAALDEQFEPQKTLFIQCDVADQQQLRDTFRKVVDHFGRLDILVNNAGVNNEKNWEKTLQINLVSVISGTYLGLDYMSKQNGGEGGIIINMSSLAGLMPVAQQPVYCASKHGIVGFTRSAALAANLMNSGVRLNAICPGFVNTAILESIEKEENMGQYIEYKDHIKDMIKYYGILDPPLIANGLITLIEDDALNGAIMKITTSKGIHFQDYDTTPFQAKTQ

[7] = stability on incubation with mouse liver extracts; assay type: in vitro ADME
[8] = stability on incubation with rat liver extracts; assay type: in vitro ADME
[9] = stability on incubation with human liver extracts; assay type: in vitro ADME
[10] = day 42, after two cycles of doxorubicin, versus vehicle control

With `CCCC[S+]([O-])c1sc2nc(-c3cccs3)cc(-c3ccccc3)c2c1N` (single isomer, unassigned; (+)) [(+) SW033291] the “ejection fraction (EF %), extended follow-up” value ([1]; Set A, follow-up to day 56) was “maintenance of improvement in ejection fraction”, the “decrease in ejection fraction” value ([1]; day 14, doxorubicin treated mice, 25 mpk oral gavage twice daily days 1-14) was 2% and the “decrease in ejection fraction” value ([1]; day 28, doxorubicin treated mice, 25 mpk oral gavage twice daily days 1-14) was 1.5%. For the same compound, the “prevention of doxorubicin induced cardiomyopathy” value ([1]; mice) was “prevented doxorubicin induced cardiomyopathy”, the “cardiac contractility, echocardiogram” value ([1]; study day 14, doxorubicin treated mice, versus oral vehicle) was “markedly greater cardiac contractility” and the ejection fraction ([2]; day 14, following the first cycle of doxorubicin) was “improvement of ejection fraction”. For the same compound, the “atrial natriuretic factor, real-time PCR in cardiac tissue” value [2, 10] was “lower levels of atrial natriuretic factor”, the “expression of connective tissue growth factor, real-time PCR in cardiac tissue” value [2, 10] was “lower levels of expression of connective tissue growth factor” and the lung weight [2, 10] was “lesser lung weight”. For the same compound, the ventricular weight [2, 10] was “lesser ventricular weight”, the total body weight ([2]; day 42, after two cycles of doxorubicin, versus vehicle treated mice) was “greater total body weight” and the ejection fraction ([2]; day 42, following the second cycle of doxorubicin) was “improvement of ejection fraction”. The “inhibition of activity of cardiac 15-PGDH” value (cardiac 15-PGDH; 25 mpk oral, starting at 30 minutes, persisting for 3 hours after administration) was “approximately 80%” and the “cardiac PGE2” value (cardiac 15-PGDH; 6 hours after drug treatment) was “increased cardiac PGE2”.
With `COc1cccc2c1C(=O)c1c(O)c3c(c(O)c1C2=O)C[C@@](O)(C(=O)CO)C[C@@H]3O[C@H]1C[C@H](N)[C@H](O)[C@H](C)O1` [doxorubicin, reference compound] the “decrease in ejection fraction” value ([1]; day 14, doxorubicin 15 mpk cumulative plus oral vehicle, compared to non-doxorubicin treated control mice) was 10%, the “decrease in ejection fraction” value ([1]; day 28, doxorubicin 15 mpk cumulative plus oral vehicle, compared to non-doxorubicin treated control mice) was 10% and the “DNA damage in cardiac myocytes, gamma-H2AX immunostaining” value (cardiac myocytes) was “induction of DNA damage”.
In the case of `CCCC[S+]([O-])c1sc2nc(-c3cccs3)cc(-c3ccccc3)c2c1N` (stereo not shown) [formula (IX)], the “PGE2 production by cell lines” value [3] was “increase PGE2 production”, the “chemical stability in aqueous solutions” value [4] was “chemically stable” and the “chemical stability when incubated with hepatocyte extracts” value [5] was “chemically stable”. The “chemical stability when incubated with hepatocyte cell lines” value [6] was “chemically stable”, the toxicity (mice; IP into mice at 0.3 μmole/per mouse twice daily for 21 days) was “no toxicity” and the “immediate toxicity over 24 hours” value (mice; IP into mice at 0.6 μmole/per mouse) was “no immediate toxicity”. The “immediate toxicity over 24 hours” value (mice; IP into mice at 1.2 μmole/per mouse) was “no immediate toxicity”.
In the case of `CCCC[S+]([O-])c1sc2nc(-c3nccs3)cc(-c3cnc(C)n3C)c2c1N` (stereo not shown) [formula (X)], the “concentration at which recombinant 15-PGDH is inhibited” value (recombinant 15-PGDH) was 3 nM, the “concentration at which PGE2 production by cell lines is increased” value [3] was 20 nM and the “chemical stability in aqueous solutions” value [4] was “chemically stable”. The “chemical stability when incubated with liver extracts” value [7] was “chemically stable”, the “chemical stability when incubated with liver extracts” value [8] was “chemically stable” and the “chemical stability when incubated with liver extracts” value [9] was “chemically stable”. For the same compound, the “immediate toxicity over 24 hours” value (mice; IP into mice at 50 mg/kg body weight) was “no immediate toxicity”.
